What was measured:
[1] = system: Diet-Induced Obese (DIO) mice; assay: Assessment of D5D inhibitor in Diet-Induced Obese (DIO) mice; assay type: in vivo, Male C57BL/6J DIO mice; settings: for Fat mass / Lean mass: day 78, EchoMRI; for Blood glucose: day 81, non-fasted; for AA / DGLA: day 81, non-fasted plasma; for Body weight / Liver weights / epididymal WAT / inguinal WAT / mesenteric WAT: day 84; for Adiponectin / Cholesterol / Insulin / LDL cholesterol / Leptin / Resisten / Triglycerides: day 84, 4-hour fasted plasma
Text: Assessment of D5D Inhibitor in Diet-Induced Obese (DIO) Mice
Male C57BL/6J DIO mice (Jackson Laboratories, Stock No.: 380050) were fed high-fat diet (Research Diets, Inc., D12492) for 12 weeks. All animals were given free access to water and chow. Animals were acclimated to per os dosing for 3 days prior to the start of the experiment. Animals were randomized on body weight, fat mass, lean mass, and blood glucose concentrations in to groups of 8 to 10 animals per group. Animals were twice daily dosed per os with either: vehicle (2% hydroxypropyl methylcellulose and 1% tween 80 in water), Example 2 at 10 mg/kg, or 30 mg/kg (formulated in 2% hydroxypropyl methylcellulose and 1% tween 80 in water), or Example 45 at 3 mg/kg, or 10 mg/kg (formulated in 2% hydroxypropyl methylcellulose and 1% tween 80 in water). Three-day average (Example 2) or daily average (Example 45) food consumption was measured at the indicated times as shown in Table 17 and Table 18. Body composition (EchoMRI) was determined on day 78 for Example 2 and day 22 for Example 45. For Example 2, a non-fasted blood collection was performed on day 81; blood glucose was immediately measured, and plasma samples created from the remaining blood and used to measure DGLA and AA concentrations. On day 84, a 4-hour fasted blood collection was performed, and plasma samples were created from the blood and used to measure cholesterol, triglycerides, low-density lipoprotein (LDL) cholesterol, insulin, and adipokine (adiponectin, leptin, and resistin) levels. For Example 45, 4 hour fasted blood samples were collected on day 25 and blood glucose was measured immediately and the plasma samples created from the remaining blood were used to measure cholesterol, triglycerides, LDL cholesterol, insulin, DGLA and AA concentration. At the end of the studies, liver, epididymal white adipose tissue, inguinal white adipose tissue, mesenteric (only Example 2) white adipose tissue weights were recorded. Data was analyzed using GraphPad Prism v 7.04.
The D5D inhibitor dose-dependently led to weight loss over the course of the experiment (Table 17 and Table 18) compared to vehicle controls. Consistently fat mass was reduced, along with lower inguinal, epididymal and mesenteric white adipose tissue (WAT) weights at necropsy. Blood glucose and plasma insulin levels were both reduced by the D5D inhibitor, along with reductions in plasma cholesterol and triglycerides. Evidence of target engagement was established by observing increases in plasma DGLA and decreases in plasma AA.

[2] = molecular target: T1, Delta-5-Desaturase (D5D) (Mus musculus, UniProt Q920L1); assay: In vivo measurement of Delta-5-Desaturase inhibitory activity (plasma AA/DGLA ratio in DIO mice); settings: single oral dose 30 mg/kg, relative to vehicle group
T1 construct: tissue Jackson Laboratories strain #3800050; host or cells: whole animal (DIO mice)
T1 sequence (Q920L1 1-447): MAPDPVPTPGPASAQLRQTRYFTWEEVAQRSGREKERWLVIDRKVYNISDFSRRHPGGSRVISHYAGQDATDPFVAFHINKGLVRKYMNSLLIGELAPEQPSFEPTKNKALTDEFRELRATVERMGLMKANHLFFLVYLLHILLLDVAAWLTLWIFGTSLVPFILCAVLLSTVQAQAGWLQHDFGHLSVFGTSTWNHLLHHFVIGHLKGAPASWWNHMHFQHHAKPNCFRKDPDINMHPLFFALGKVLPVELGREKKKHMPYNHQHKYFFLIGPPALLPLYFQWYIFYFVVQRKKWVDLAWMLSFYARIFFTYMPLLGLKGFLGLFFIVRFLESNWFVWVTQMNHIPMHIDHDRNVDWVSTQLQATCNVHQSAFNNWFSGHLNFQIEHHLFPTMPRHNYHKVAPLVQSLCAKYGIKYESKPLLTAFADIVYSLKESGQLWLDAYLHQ
Method: In Vivo Measurement of Delta-5-Desaturase Inhibitory Activity
Diet-induced obese (DIO; Jackson Laboratories strain #[…]) mice were used to screen for pharmacodynamic (PD) activity of test compounds. Generally, 14 to 24 week old DIO mice, were administered test compounds formulated in the vehicle of 2% hydroxypropyl methylcellulose (HPMC) and 1% Tween80. Animals were dosed on body weight by oral gavage with a single dose (30 mg/kg) for PD studies. Necropsy included plasma collection for PUFA analysis. 10 μl of plasma or standards diluted in surrogate matrix (65 g/l bovine serum albumin in Dulbecco's phosphate-buffered saline) were mixed with 10 μl of an internal standard (100 μM alpha-linolenic acid-d14 (ALA-d14, Cayman Chemical)) in a 96 well plate. 100 μl of 2N NAOH was added to the mixture for subsequent saponification at 65° C. for 1 hour. The mixture was then acidified with 50 μl of formic acid followed by two consecutive hexane extractions. Hexane (500 μl) was added and the mixture thoroughly mixed by vortexing, followed by centrifugation at 4,000 rpm for 15 min. The hexane phase was transferred to a new 1 ml 96 well plate and the remaining aqueous layer was extracted with hexane. The organic extracts were combined and the solvent was removed by placing the plate under nitrogen gas at 55° C. 250 μl of 90% methanol was added to the plate followed by vortexing for 2 minutes. 200 μl of the samples were transferred to a new 96 well polypropylene plate. The samples were analyzed on a LC-MS/MS for the following PUFAs: arachidonic acid (AA), dihomo-gamma-linolenic acid (DGLA), with ALA-d14 as the internal standard. Description of the LC-MS/MS method: 5 μl of sample was injected onto a Poroshell 120 EC-C18 3.0×50 mm, 1.9 μm id column. […] The PUFA peak areas were quantified by using the SCIEX Analyst software. […] The relative decrease of the AA/DGLA ratio of the test compound administered group relative to the vehicle administered group was calculated and used as an index for the degree of D5D inhibition. […]

[3] = Example 2 10 mg/kg twice daily per os
[4] = Example 2 30 mg/kg twice daily per os

Cc1nn2c(=O)c(-c3cnn(CC(F)(F)C(F)(F)F)c3)c(C(F)(F)F)nc2s1 [Example 2, 2-methyl-6-[1-(2,2,3,3,3-pentafluoropropyl)-1H-pyrazol-4-yl]-7-(trifluoromethyl)-5H-[1,3,4]thiadiazolo[3,2-a]pyrimidin-5-one]
Fat mass [1, 3]: 11.4 ± 0.6 g | Lean mass [1, 3]: 26.4 ± 0.6 g | Blood glucose [1, 3]: 165.3 ± 4.6 mg/dL | AA [1, 3]: 14.5 ± 0.9 µg/mL | DGLA [1, 3]: 167.8 µg/mL | Body weight [1, 3]: 38.1 ± 1.0 g | Liver weights [1, 3]: 3.0 ± 0.2 g | epididymal WAT [1, 3]: 1.2 ± 0.1 g | inguinal WAT [1, 3]: 1.2 ± 0.1 g | mesenteric WAT [1, 3]: 0.4 ± 0.0 g | Adiponectin [1, 3]: 48.3 ± 17.7 ng/mL | Cholesterol [1, 3]: 224.5 ± 7.3 mg/dL | Insulin [1, 3]: 1.8 ± 0.3 ng/mL | LDL cholesterol [1, 3]: 85.9 ± 3.8 mg/dL | Leptin [1, 3]: 10.7 ± 3.6 ng/mL | Resisten [1, 3]: 0.9 ± 0.2 ng/mL | Triglycerides [1, 3]: 14.3 ± 1.2 mg/dL | Food consumption ([1]; Example 2 10 mg/kg twice daily per os, days 0-2, three-day average): 2.5 ± 0.2 g/day | Food consumption ([1]; Example 2 10 mg/kg twice daily per os, days 70-72, three-day average): 2.5 ± 0.1 g/day | Fat mass [1, 4]: 5.7 ± 0.6 g | Lean mass [1, 4]: 26.1 ± 0.4 g | Blood glucose [1, 4]: 152.1 mg/dL | AA [1, 4]: 10.7 ± 0.6 µg/mL | DGLA [1, 4]: 137.7 µg/mL | Body weight [1, 4]: 32.3 ± 0.9 g | Liver weights [1, 4]: 3.2 ± 0.1 g | epididymal WAT [1, 4]: 0.75 ± 0.1 g | inguinal WAT [1, 4]: 0.5 ± 0.1 g | mesenteric WAT [1, 4]: 0.2 ± 0.0 g | Adiponectin [1, 4]: 51.0 ± 24.4 ng/mL | Cholesterol [1, 4]: 207.5 mg/dL | Insulin [1, 4]: 1.4 ± 0.2 ng/mL | LDL cholesterol [1, 4]: 80.6 ± 3.9 mg/dL | Leptin [1, 4]: 3.2 ± 1.6 ng/mL | Resisten [1, 4]: 0.7 ± 0.2 ng/mL | Triglycerides [1, 4]: 12.8 ± 1.0 mg/dL | Food consumption ([1]; Example 2 30 mg/kg twice daily per os, days 0-2, three-day average): 2.5 ± 0.2 g/day | Food consumption ([1]; Example 2 30 mg/kg twice daily per os, days 70-72, three-day average): 2.7 ± 0.1 g/day | Average % D5D Inhibition expressed as Plasma Endogenous AA/DGLA Ratio [2]: 66%

— patent publication US11512097B2, “Heterocyclic compounds as Delta-5 desaturase inhibitors and methods of use” (Amgen Inc., priority 2019, dated 2022)
